Experimental findings from US7811797B2, “α-isomaltosylglucosaccharide-forming enzyme, process and uses of the same” (Kabushiki Kaisha Hayashibara Seibutsu Kagaku Kenkyujo, priority 2000, dated 2010) are described below.

This assay relates to α-isomaltosylglucosaccharide-forming enzyme. Kind of assay: Transfer-acceptor specificity, Enzyme of Strain N75. Particulars: acceptor 1.6%, PINE-DEX #100 donor 4%, one unit/g donor, 30° C., pH 6.0, 24 hours. The class given is biochemical, Bacillus globisporus N75. The method, boiled down: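 Each candidate acceptor at 1.6% was combined with 4% partial starch hydrolysate donor and 1 unit/g donor (d.s.b.) of purified enzyme. Incubation ran 24 h at 30 °C, pH 6.0 for the C9, C11 and N75 enzymes and pH 8.4 for A19. Transfer products were detected by GLC for mono- and disaccharide acceptors and HPLC for trisaccharide acceptors.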

As for `OC[C@@H](O)[C@@H](O[C@H]1O[C@H](CO)[C@@H](O)[C@H](O)[C@H]1O)[C@H](O)[C@@H](O)CO` [Maltitol, reference compound], the “Product of transferring reaction, Enzyme of Strain N75” value is “++ (a saccharide-transferred product was detected in an amount over ten percent through transfer reaction to acceptor)”.
